Values quoted from earlier work in US20140348811A1, “COMPOSITIONS COMPRISING SUGAR-CYSTEINE PRODUCTS” (MAX INTERNATIONAL, LLC, priority 2011, published 2014).

Tests used:
[1] = test system: mice exposed to cyclophosphamide; details: 8 mmol/kg
[2] = test system: irradiation-induced bowel injury; details: mice, 1 g/kg
[3] = test system: acetaminophen hepatic and renal toxicity; details: mice, 2 g/kg
glutathione levels = details: mice, 8 mmol/kg i.p.
[4] = administered directly to humans, wide dosage ranges
[5] = healthy humans, orally 8-10 g per day
ATP levels = details: dogs subjected to ischemia, about 3 g/day for at least 5 days

Row | Structure (SMILES) | delivery of protective amounts of cysteine [1] | protection against irradiation-induced bowel injury [2] | protection against acetaminophen hepatic and renal toxicity [3] | increased glutathione levels, heart (glutathione levels; heart) [times] | increased glutathione levels, muscle tissue (glutathione levels; muscle tissue) [times] | toxicity [4] | exercise capacity [5] | ATP levels (ATP levels)
1 | O=C(O)[C@@H]1CSC(C(O)C(O)C(O)CO)N1 (stereo partly drawn) [RibCys, 2(R,S)-D-ribo-(1′,2′,3′,4′-tetrahydroxybutyl)thiazolidine-4(R)-carboxylic acid] | deliver effective protective amounts of cysteine | protect mice against irradiation-induced bowel injury | protect mice against acetaminophen hepatic and renal toxicity | 1.5 | 2.5 |  |  | 
2 | O=C[C@H](O)[C@H](O)[C@H](O)CO [ribose] |  |  |  |  |  | essentially non-toxic | increase exercise capacity | effectively restored and maintained ATP levels
